What was measured:
[1] = target: cMET kinase (Homo sapiens (Human), UniProt P08581); experiment: cMET kinase inhibition (Table 4); assay type: biochemical
[2] = target: KDR kinase (Homo sapiens (Human), UniProt P35968); experiment: KDR kinase inhibition (Table 4); assay type: biochemical
[3] = target: unphosphorylated PDGFRβ kinase (uPDGFRβ, Seq. ID No. 3) (Homo sapiens (Human), UniProt P09619); experiment: Unphosphorylated PDGFRβ kinase assay (coupled pyruvate kinase/lactate dehydrogenase); assay type: biochemical; conditions: enzymatic assay, ATP 500 μM
Method in brief: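 Construct residues 557-1106, unphosphorylated, 15.7 nM, with poly E4Y 2.5 mg/mL and 500 μM ATP, Tris pH 7.5, 1% DMSO, 30 °C. ADP coupled to NADH oxidation via PK/LDH, A340 followed 4 h; rate from 1.5-2.5 h versus no-compound control, IC50 from percent-inhibition series.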

[4] = system: c-FMS; experiment: cFOS mRNA production in a c-FMS mouse spleen pharmacodynamic model; assay type: in vivo; conditions: out to 8 h post 30 mg/kg dose, single oral dose
Procedure: Analysis of cFOS mRNA Production in a c-FMS Mouse Spleen Pharmacodynamic Model
To examine the in vivo modulation of FMS activity by compounds of formula I, spleen samples from female DBA/1 mice were collected and analyzed for M-CSF stimulated production of cFOS mRNA. Briefly, six to seven week old female Taconic DBA/1BO J Bom Tac mice were treated with a single oral dose (by gavage) of either vehicle or compound. Plasma and spleen samples were collected from four mice at each timepoint 2, 4, 6, 8, 12, 18, and 24 hours after dosing. Fifteen minutes prior to euthanasia, all mice were injected IV with 1 μg (100 μL fixed volume) of M-CSF. M-CSF, Recombinant Mouse Macrophage Colony Stimulating Factor (36.4 kDa homodimer, ≧98% purity) was obtained from Gibco. All procedures carried out in this experiment were conducted in compliance with all the laws, regulations and guidelines of the National Institutes of Health (NIH). cFOS mRNA levels in spleen extracts were determined using a quantitative reverse transcriptase PCR kit from Life Technologies. Plasma levels of FMS inhibitors were determined by mass spectrometer analysis. The degree of FMS inhibition was correlative to the amount of decrease observed in cFOS mRNA levels in the spleen samples of treated animals compared to vehicle.

[5] = system: PC-3 M-luc cells; experiment: PC-3 peritibial implant model of cancer bone metastasis; assay type: in vivo, mouse; conditions: oral dose of 30 mg/kg twice daily; lesion score of 4 in vehicle-treated animals; scale 0-4
From the text: PC-3 Peritibial Implant Model of Cancer Bone Metastasis
To evaluate in vivo anti-cancer activity of compounds of formula I, the PC-3 M-luc peritibial injection model of bone invasiveness model was employed. Briefly, PC-3 M-luc cells were obtained from Xenogen Corporation (Caliper Life Sciences) and expanded using MEM media modified with L-Glutamine (Cell Gro® #10-045-CV) supplemented with 10% fetal bovine serum, 1% penicillin-streptomycin-glutamine, 1% non-essential amino acids, and 1% MEM vitamins in 5% CO2 atmosphere at 37° C. Six to 7 week old male nude mice (Crl:NU-Foxn1nu) were obtained from Charles River Laboratories. Test mice were implanted peritibially on Day 0 with 1×10^6 cells/mouse (0.1 ml) using an insulin syringe with a fixed 28-gauge needle. The needle was inserted at the ankle between the tibia and fibula until the bevel of the needle reached approximately half way between the knee and ankle. Treatments began on Day 0. Animals were dosed by oral gavage twice daily for the study duration. […]
Isosurface volume renderings were used to delineate lesions in the hind limbs. […] Lesions in the right hind limb were scored with values of 0, 1, 2, 3, or 4 based on a qualitative assessment of lesion size as defined by: • 0: Normal Bone • 1: Minimal lesions. […]

unphosphorylated PDGFRβ kinase (uPDGFRβ, Seq. ID No. 3), sequence (P09619 557-1106): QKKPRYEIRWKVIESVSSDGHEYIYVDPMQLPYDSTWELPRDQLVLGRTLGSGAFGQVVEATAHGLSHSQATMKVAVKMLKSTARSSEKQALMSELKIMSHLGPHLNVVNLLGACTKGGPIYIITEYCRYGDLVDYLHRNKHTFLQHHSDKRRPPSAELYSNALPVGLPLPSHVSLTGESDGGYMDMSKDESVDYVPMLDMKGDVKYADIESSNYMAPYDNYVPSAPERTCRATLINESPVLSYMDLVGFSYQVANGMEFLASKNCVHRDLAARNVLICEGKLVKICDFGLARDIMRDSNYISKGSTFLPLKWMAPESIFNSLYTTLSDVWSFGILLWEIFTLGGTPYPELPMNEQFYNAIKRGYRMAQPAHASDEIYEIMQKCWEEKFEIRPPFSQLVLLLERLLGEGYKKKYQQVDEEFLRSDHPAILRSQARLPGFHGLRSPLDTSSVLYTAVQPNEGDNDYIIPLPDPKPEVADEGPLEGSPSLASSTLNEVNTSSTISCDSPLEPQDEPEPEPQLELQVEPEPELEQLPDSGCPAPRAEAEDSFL
KDR kinase, sequence (P35968 20-1356): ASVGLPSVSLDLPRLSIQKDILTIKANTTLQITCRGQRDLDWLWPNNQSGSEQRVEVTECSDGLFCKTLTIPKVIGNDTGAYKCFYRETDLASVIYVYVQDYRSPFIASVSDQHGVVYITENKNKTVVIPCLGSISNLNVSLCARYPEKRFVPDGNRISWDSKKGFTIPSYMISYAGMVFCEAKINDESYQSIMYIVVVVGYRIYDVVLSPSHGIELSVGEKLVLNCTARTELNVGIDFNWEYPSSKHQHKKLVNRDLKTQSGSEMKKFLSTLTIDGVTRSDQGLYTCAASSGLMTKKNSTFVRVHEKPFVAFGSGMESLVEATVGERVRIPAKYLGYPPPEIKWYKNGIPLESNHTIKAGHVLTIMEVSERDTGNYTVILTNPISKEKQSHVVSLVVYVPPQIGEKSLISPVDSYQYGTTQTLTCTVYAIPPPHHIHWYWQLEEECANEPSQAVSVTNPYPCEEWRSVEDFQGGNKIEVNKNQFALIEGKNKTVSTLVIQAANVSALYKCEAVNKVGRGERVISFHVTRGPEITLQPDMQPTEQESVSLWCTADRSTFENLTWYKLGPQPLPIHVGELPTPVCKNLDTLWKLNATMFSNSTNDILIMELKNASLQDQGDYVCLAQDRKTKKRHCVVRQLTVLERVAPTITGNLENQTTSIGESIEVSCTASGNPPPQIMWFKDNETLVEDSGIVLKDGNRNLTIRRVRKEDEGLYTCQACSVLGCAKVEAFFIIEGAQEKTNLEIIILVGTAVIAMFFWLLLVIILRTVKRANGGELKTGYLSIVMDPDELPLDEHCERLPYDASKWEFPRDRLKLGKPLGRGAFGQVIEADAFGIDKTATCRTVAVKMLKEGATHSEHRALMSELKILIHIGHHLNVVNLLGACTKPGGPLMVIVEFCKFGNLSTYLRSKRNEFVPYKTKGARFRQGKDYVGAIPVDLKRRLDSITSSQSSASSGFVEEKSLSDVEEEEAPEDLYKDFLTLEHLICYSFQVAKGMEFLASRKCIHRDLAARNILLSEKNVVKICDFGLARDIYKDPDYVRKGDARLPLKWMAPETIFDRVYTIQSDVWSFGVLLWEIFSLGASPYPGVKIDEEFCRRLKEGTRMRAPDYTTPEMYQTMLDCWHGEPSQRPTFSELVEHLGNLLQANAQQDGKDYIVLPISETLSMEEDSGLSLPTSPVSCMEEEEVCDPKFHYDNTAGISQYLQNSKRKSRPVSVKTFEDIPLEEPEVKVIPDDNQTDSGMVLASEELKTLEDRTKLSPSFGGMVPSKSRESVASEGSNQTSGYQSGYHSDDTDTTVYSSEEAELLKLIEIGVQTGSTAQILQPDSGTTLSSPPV
cMET kinase, sequence (P08581 25-1390): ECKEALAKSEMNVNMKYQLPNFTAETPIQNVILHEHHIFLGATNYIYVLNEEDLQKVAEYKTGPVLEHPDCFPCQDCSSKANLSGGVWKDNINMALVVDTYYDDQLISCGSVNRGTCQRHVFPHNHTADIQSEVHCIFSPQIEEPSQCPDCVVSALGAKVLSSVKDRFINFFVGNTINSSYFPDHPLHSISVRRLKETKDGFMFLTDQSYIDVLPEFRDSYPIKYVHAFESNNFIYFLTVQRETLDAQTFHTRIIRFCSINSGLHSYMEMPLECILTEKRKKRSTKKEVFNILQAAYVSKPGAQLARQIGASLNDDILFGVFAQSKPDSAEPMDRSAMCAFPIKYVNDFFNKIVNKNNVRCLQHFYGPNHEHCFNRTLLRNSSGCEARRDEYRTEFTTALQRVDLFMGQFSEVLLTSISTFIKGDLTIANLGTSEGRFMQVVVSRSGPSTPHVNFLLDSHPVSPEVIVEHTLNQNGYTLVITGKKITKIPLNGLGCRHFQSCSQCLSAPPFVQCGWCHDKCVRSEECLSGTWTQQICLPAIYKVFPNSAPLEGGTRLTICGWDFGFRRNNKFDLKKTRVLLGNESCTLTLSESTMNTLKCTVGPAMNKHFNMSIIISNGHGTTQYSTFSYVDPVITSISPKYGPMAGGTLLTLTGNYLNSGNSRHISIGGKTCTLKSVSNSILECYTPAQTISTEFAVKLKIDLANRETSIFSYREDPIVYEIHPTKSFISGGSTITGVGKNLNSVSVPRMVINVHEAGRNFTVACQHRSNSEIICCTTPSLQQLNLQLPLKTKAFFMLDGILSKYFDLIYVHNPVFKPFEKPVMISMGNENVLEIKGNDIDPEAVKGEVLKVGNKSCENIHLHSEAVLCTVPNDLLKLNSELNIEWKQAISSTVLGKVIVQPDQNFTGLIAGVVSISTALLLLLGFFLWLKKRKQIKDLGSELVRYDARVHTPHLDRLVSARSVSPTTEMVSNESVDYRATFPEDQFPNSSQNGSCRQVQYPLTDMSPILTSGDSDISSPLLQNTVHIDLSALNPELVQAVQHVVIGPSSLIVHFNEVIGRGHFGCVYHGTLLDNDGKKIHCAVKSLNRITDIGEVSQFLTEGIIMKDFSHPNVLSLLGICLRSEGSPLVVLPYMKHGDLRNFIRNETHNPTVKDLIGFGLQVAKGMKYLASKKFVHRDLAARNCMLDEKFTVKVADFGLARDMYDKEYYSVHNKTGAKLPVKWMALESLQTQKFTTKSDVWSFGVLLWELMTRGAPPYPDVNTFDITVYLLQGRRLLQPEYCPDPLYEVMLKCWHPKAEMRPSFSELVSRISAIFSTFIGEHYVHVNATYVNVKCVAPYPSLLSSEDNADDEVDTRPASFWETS

With `Cn1cc(-c2cc(Oc3ccc(NC(=O)N4CCN(C5CCOCC5)C4=O)nc3)ccn2)cn1` [Example 1, N-(5-((2-(1-methyl-1H-pyrazol-4-yl)pyridin-4-yl)oxy)pyridin-2-yl)-2-oxo-3-(tetrahydro-2H-pyran-4-yl)imidazolidine-1-carboxamide] the IC50 [1] was over 5000 nM, the IC50 [2] was over 3300 nM and the IC50 [3] was 100 to 1000 nM.
For `COCCN1CCN(C(=O)Nc2ccc(Oc3ccnc(-c4cnn(C)c4)c3)c(C)n2)C1=O` [Example 18, 3-(2-methoxyethyl)-N-(6-methyl-5-((2-(1-methyl-1H-pyrazol-4-yl)pyridin-4-yl)oxy)pyridin-2-yl)-2-oxoimidazolidine-1-carboxamide], the IC50 [1] was over 5000 nM, the IC50 [2] was over 3300 nM and the IC50 [3] was over 1000 nM. For the same molecule, the “inhibition of cFOS mRNA levels” value [4] was at least 70%.
For `Cc1nc(NC(=O)N2CCN(C3CCCC3)C2=O)ccc1Oc1ccnc(-c2cnn(C)c2)c1` [Example 29, 3-cyclopentyl-N-(6-methyl-5-((2-(1-methyl-1H-pyrazol-4-yl)pyridin-4-yl)oxy)pyridin-2-yl)-2-oxoimidazolidine-1-carboxamide], the IC50 [1] was 898 nM, the IC50 [2] was over 3300 nM and the IC50 [3] was over 1000 nM.
`Cc1nc(NC(=O)N2CCN(C)C2=O)ccc1Oc1ccnc(-c2cnn(C)c2)c1` [Example 41, 3-methyl-N-(6-methyl-5-((2-(1-methyl-1H-pyrazol-4-yl)pyridin-4-yl)oxy)pyridin-2-yl)-2-oxoimidazolidine-1-carboxamide] was tested, and the IC50 [3] was over 1000 nM and the “inhibition of cFOS mRNA levels” value [4] was at least 70%.
`CCN1CCN(C(=O)Nc2ccc(Oc3ccnc(-c4cnn(C)c4)c3)c(C)n2)C1=O` [Example 42, 3-ethyl-N-(6-methyl-5-((2-(1-methyl-1H-pyrazol-4-yl)pyridin-4-yl)oxy)pyridin-2-yl)-2-oxoimidazolidine-1-carboxamide] gave an IC50 [1] of over 5000 nM, a lesion score [5] of 2 and an IC50 [2] of over 10000 nM. The IC50 [3] was over 1000 nM and the “inhibition of cFOS mRNA levels” value [4] was at least 70%.
In the case of `CCc1nc(NC(=O)N2CCN(C3CC3)C2=O)ccc1Oc1ccnc(-c2cnn(C)c2)c1` [Example 58, 3-cyclopropyl-N-(6-ethyl-5-((2-(1-methyl-1H-pyrazol-4-yl)pyridin-4-yl)oxy)pyridin-2-yl)-2-oxoimidazolidine-1-carboxamide], the IC50 [3] is reported as over 1000 nM.
Work on `CCN1CCN(C(=O)Nc2ccc(Oc3ccnc(-c4ccc(C5CCN(C)CC5)cc4)c3)c(C)n2)C1=O` [Example 61, 3-ethyl-N-(6-methyl-5-((2-(4-(1-methylpiperidin-4-yl)phenyl)pyridin-4-yl)oxy)pyridin-2-yl)-2-oxoimidazolidine-1-carboxamide] yielded an IC50 [3] of over 1000 nM.
In the case of `Cc1cc(NC(=O)N2CCN(C)C2=O)ncc1Oc1ccnc(-c2cnn(C)c2)c1` [Example 85, 3-methyl-N-(4-methyl-5-((2-(1-methyl-1H-pyrazol-4-yl)pyridin-4-yl)oxy)pyridin-2-yl)-2-oxoimidazolidine-1-carboxamide], the IC50 [3] is reported as over 1000 nM.
`CCN1CCN(C(=O)Nc2cc(C)c(Oc3ccnc(-n4cnc(C)c4)c3)cn2)C1=O` [Example 88, 3-ethyl-N-(4-methyl-5-((2-(4-methyl-1H-imidazol-1-yl)pyridin-4-yl)oxy)pyridin-2-yl)-2-oxoimidazolidine-1-carboxamide] was tested, and the IC50 [3] was over 1000 nM.
Work on `CCN1CCN(C(=O)Nc2ccc(Oc3ccnc(-c4cnc(C)o4)c3)cn2)C1=O` [Example 117, 3-ethyl-N-(5-((2-(2-methyloxazol-5-yl)pyridin-4-yl)oxy)pyridin-2-yl)-2-oxoimidazolidine-1-carboxamide] yielded an IC50 [3] of over 1000 nM.
`CCN1CCN(C(=O)Nc2ccc(Oc3ccnc(-c4ccnc(C)c4)c3)c(C)n2)C1=O` [Example 118, 3-ethyl-N-(6-methyl-5-((2′-methyl-[2,4′-bipyridin]-4-yl)oxy)pyridin-2-yl)-2-oxoimidazolidine-1-carboxamide] was tested, and the IC50 [3] was over 1000 nM and the “inhibition of cFOS mRNA levels” value [4] was at least 70%.
In the case of `CC(=O)Nc1cc(Oc2ccc(NC(=O)N3CCN(C4CCOCC4)C3=O)nc2)ccn1` [Example 119, N-(5-((2-acetamidopyridin-4-yl)oxy)pyridin-2-yl)-2-oxo-3-(tetrahydro-2H-pyran-4-yl)imidazolidine-1-carboxamide], the IC50 [3] is reported as 100 to 1000 nM.
`CN(C)C(=O)Nc1cc(Oc2ccc(NC(=O)N3CCN(C4CCOCC4)C3=O)nc2)ccn1` [Example 120, N-(5-((2-(3,3-dimethylureido)pyridin-4-yl)oxy)pyridin-2-yl)-2-oxo-3-(tetrahydro-2H-pyran-4-yl)imidazolidine-1-carboxamide] was tested, and the IC50 [3] was 10 to 100 nM.

From US9133183B2, “Imidazolidinones and analogs exhibiting anti-cancer and anti-proliferative activities” (Deciphera Pharmaceuticals, LLC, priority 2013, dated 2015)
